Data set [1] can be described thus: Plasma stability (LC-MS/MS, % parent compound remaining, half-life). It is filed as in vitro ADME. Conditions: human plasma; for half-life at 1 μM: 37° C., 0-240 mins, read-out: Human Plasma Stability (t1/2, min); for plasma stability and/or aqueous solubility compared to reference compound URB597: see Table 5. Here is the method: Exemplary compounds described herewith were assayed for plasma stability (various species).
Plasma was removed from deep freezer and allowed to thaw at room temperature (or at 37° C. if needed). Plasma was then centrifuged at 4,000 rpm at RT for 10 min and supernatant was collected and used for the assay: • Drug test tubes: 297 μL plasma/drug test tube, duplicate/drug. • Blank test tubes: 297 μL plasma/Blank test tube, duplicate, too. (Optional, if assay system is stable and consistent) • T0 plasma tube: […] X No. of total sample tubes+50 μL extra for T0 extraction. • (Note: equivalent proportion of solvent mixture as added in drug test tubes will be added before T0 extraction!)
Take out the pre-warmed plasma tubes from the 37° C. incubator. Add 3 μL of 100 μM stock solution (or, equivalent proportion of the solvent mixture to T0 plasma tube for T0 extraction) to each corresponding sample tubes in order, vortex gently (3×) to mix. Finish the sample tubes orderly and quickly, then transfer them to the Thermomixer (program & 37° C. ready), and start the Thermomixer. Record starting time on paper & start the timer for 15 min for the 1st sampling time point.
Now add the equivalent amount of solvent mixture to the T0 plasma tube, mix, and transfer 50 μL plasma to each of the T0 extracting tubes, vortex 20s and placed on ice. Vortex 10s again before centrifuging the samples at 14,000 rpm for 5 min at 4° C.
Repeat the above procedures at each time point (15, 30, 60, 120, 240 min) by transferring 50 μL plasma samples from the testing tubes to the corresponding extracting tubes, in the same order and time scheme as in the addition of the drug to the plasma samples at the beginning of the study.
• Kel=Slope of LN % PCR vs time
Half life (t½)=0.693/Kel (1)

Data set [2] concerns the target human recombinant MAGL (Homo sapiens (Human), UniProt Q99685). Kind of data set: In vitro inhibition of MAGL activity (inhibitor screening kit, 4-nitrophenylacetate). The format is biochemical. Conditions: human recombinant MAGL. An outline of the steps:
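Percent inhibition derived from absorbance (405-412 nm) of treated wells relative to untreated enzyme control. Human recombinant MAGL with 4-nitrophenylacetate substrate, whose cleavage yields yellow 4-nitrophenol.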

A short description of data set [3]: Aqueous solubility in PBS buffer pH 7.4 (LC-MS). The format is physicochemical. The note with it: phosphate buffer, kinetic from dmso stock, PBS buffer pH 7.4, room temperature, spiked at 100 μM from DMSO stock. Here is the method: Compounds as described herewith were analyzed for their aqueous solubility.
The aqueous solubility of compounds were determined using standard protocols. To illustrate the experimental protocol, the analysis of a representative compound is described. Exemplary compound of Example 158 (MW: 380.4 g/mol) was analyzed in a buffer system at specified pH (phosphate buffer, pH 7.4). This was accomplished by spiking a DMSO stock solution of the test compound at a final concentration of 100 μM in buffer.
Solubility calculation: This is a quantitative assay. The mixture at the end of the assay is filtered by 0.22 micron syringe filter and after 5× dilution in diluent, it was analyzed versus a calibration curve using LC-MS.

In data set [4] the target is human recombinant FAAH (Homo sapiens (Human), UniProt O00519). Kind of data set: In vitro inhibition of FAAH activity (fluorescent inhibitor screening kit, AMC arachidonoyl amide). The format is biochemical. An outline of the steps: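 Fluorogenic kit assay: AMC arachidonoyl amide is cleaved by human recombinant FAAH, read at 340-360/450-465 nm. Percent inhibition versus non-treated control; IC50 values derived from multiple compound concentrations where tested.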

The mark [5] stands for this setting: FAAH, values as listed in Table 5, read-out: IC50.
Setting [6] is: human recombinant FAAH, read-out: Inhibition on FAAH activity (IC50).

Values after ≈ are worked out from the molar mass of the structure shown. Where two headings read alike, the source gives them in different places.

Sequence of human recombinant FAAH (O00519 whole entry): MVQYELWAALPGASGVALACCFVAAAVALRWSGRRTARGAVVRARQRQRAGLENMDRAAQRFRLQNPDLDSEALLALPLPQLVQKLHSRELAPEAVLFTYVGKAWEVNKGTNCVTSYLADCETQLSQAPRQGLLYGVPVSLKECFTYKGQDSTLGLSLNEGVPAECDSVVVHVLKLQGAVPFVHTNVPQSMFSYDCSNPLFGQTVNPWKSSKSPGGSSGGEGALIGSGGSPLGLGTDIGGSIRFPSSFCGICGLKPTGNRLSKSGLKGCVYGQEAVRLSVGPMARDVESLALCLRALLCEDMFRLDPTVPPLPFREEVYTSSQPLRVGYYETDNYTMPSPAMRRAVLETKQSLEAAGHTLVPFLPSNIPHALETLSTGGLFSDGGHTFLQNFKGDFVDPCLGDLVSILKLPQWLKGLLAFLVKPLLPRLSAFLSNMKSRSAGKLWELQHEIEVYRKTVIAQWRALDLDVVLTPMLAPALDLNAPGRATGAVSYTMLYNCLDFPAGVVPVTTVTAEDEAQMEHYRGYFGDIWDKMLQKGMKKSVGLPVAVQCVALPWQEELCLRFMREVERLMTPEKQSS
Sequence of human recombinant MAGL (Q99685 whole entry): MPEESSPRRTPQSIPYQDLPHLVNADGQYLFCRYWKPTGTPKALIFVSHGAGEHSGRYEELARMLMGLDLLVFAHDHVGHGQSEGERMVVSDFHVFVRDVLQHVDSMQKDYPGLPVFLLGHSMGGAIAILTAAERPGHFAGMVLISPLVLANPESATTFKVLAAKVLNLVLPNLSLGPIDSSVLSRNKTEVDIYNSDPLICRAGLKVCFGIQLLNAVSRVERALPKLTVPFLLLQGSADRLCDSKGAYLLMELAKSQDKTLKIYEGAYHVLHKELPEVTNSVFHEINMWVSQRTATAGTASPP

With `COc1ccc(OC(=O)NC2CCCCCC2)cc1-c1cncc(-c2ncco2)c1` [Example 83, 4-methoxy-3-(5-(oxazol-2-yl)pyridin-3-yl)phenyl cycloheptylcarbamate], the half-life at 1 μM in data set [1] came to 194 min. In data set [1], the “plasma stability and/or aqueous solubility compared to reference compound URB597” value was “improved plasma stability, improved aqueous solubility, or improved plasma stability and aqueous solubility”. For the same compound, the IC50 in data set [2] was over 10 µM; in data set [4] (setting [5]) it was 111 nM; in data set [4] (setting [6]) it was 10 to 100 nM. This compound also displayed a solubility in data set [3] of 16.3 µM (≈ 6.64 µg/mL).

With `O=C(NC1CCCCCC1)Oc1cc(F)cc(-c2cncc(-c3nnco3)c2)c1` [Example 198, 3-(5-(1,3,4-oxadiazol-2-yl)pyridin-3-yl)-5-fluorophenyl cycloheptylcarbamate], in data set [1], the half-life at 1 μM turned out to be 4.7 min. Besides, the half-inhibitory concentration (IC50) was over 10 µM in data set [2], 132 nM in data set [4] (setting [5]) and 132 nM in data set [4] (setting [6]). This compound also displayed a solubility in data set [3] of 5.7 µM (≈ 2.26 µg/mL).

For `CSc1ccc(OC(=O)NC2CCCCCC2)cc1-c1cncc(-c2nnco2)c1` [Example 191, 3-(5-(1,3,4-oxadiazol-2-yl)pyridin-3-yl)-4-(methylthio)phenyl cycloheptylcarbamate], the half-life at 1 μM in data set [1] is 31 min. Besides, the “plasma stability and/or aqueous solubility compared to reference compound URB597” value in data set [1] is “improved plasma stability, improved aqueous solubility, or improved plasma stability and aqueous solubility”. Also, the IC50 in data set [2] was over 10 µM; in data set [4] (setting [5]), 153 nM; in data set [4] (setting [6]), 153 nM. The compound also gave a solubility in data set [3] of 11.9 µM (≈ 5.05 µg/mL).

For `O=C(NC1CCCCCC1)Oc1cc(O)cc(-c2cncc(-c3nnco3)c2)c1` [Example 165, 3-(5-(1,3,4-oxadiazol-2-yl)pyridin-3-yl)-5-hydroxyphenyl cycloheptylcarbamate], the half-life at 1 μM in data set [1] is 28 min. The values for the IC50 in data set [2], in data set [4] (setting [5]) and in data set [4] (setting [6]) were over 10 µM, 25.8 nM and 25.8 nM, respectively. Also, the solubility in data set [3] was found to be 22.6 µM (≈ 8.91 µg/mL).

Turning to `O=C(NC1CCCCC1)Oc1cccc(-c2cncc(-c3nnco3)n2)c1` [Example 267, 3-(6-(1,3,4-oxadiazol-2-yl)pyrazin-2-yl)phenyl cyclohexylcarbamate], the half-life at 1 μM in data set [1] was determined as 12 min. For the same compound, the concentration for half-maximal inhibition (IC50) in data set [2] was over 10 µM; in data set [4] (setting [5]), 140 nM; in data set [4] (setting [6]), 140 nM. In data set [3], this compound gave a solubility of 73.6 µM (≈ 26.9 µg/mL).

Take `COc1cc(OC(=O)NC2CCCCCC2)cc(-c2cncc(-c3nnco3)c2)c1` [Example 179, 3-(5-(1,3,4-oxadiazol-2-yl)pyridin-3-yl)-5-methoxyphenyl cycloheptylcarbamate]: the half-life at 1 μM in data set [1] is 18 min. The values for the concentration for half-maximal inhibition (IC50) in data set [2], in data set [4] (setting [5]) and in data set [4] (setting [6]) were 10 to 50 µM, 91.1 nM and 91.1 nM, respectively. Besides, in data set [3], the solubility was determined as 9.2 µM (≈ 3.76 µg/mL).

On to `O=C(NC1CCCCCC1)Oc1cccc(-c2cncc(-c3ncn[nH]3)c2)c1` [Example 225, 3-(5-(1H-1,2,4-triazol-5-yl)pyridin-3-yl)phenyl cycloheptyl carbamate], for which the half-life at 1 μM in data set [1] was determined as 47 min. Besides, in data set [1], the “plasma stability and/or aqueous solubility compared to reference compound URB597” value is “improved plasma stability, improved aqueous solubility, or improved plasma stability and aqueous solubility”. Besides, the figures for the IC50 in data set [2], in data set [4] (setting [5]) and in data set [4] (setting [6]) were about 10 µM, 176 nM and 176 nM, respectively. Also, in data set [3], the concentration in solution (solubility) came to 8.6 µM (≈ 3.25 µg/mL).

`O=C(Oc1cccc(-c2cncc(-c3nnco3)c2)c1)N1CC2(CCC2)C1` [Example 146, 3-(5-(1,3,4-oxadiazol-2-yl)pyridin-3-yl)phenyl 2-azaspiro[3.3]heptane-2-carboxylate]: the half-life at 1 μM in data set [1] was 186 min. Moreover, the “plasma stability and/or aqueous solubility compared to reference compound URB597” value in data set [1] was “improved plasma stability, improved aqueous solubility, or improved plasma stability and aqueous solubility”. The IC50 is over 10 µM in data set [2], 401 nM in data set [4] (setting [5]) and 401 nM in data set [4] (setting [6]). The same compound showed a solubility in data set [3] of 82.7 µM (≈ 30 µg/mL).

`O=C(NC1CCCCCC1)Oc1ccc(OC(F)(F)F)c(-c2cncc(-c3ncco3)c2)c1` [Example 91, 3-(5-(oxazol-2-yl)pyridin-3-yl)-4-(trifluoromethoxy)phenyl cycloheptylcarbamate]: the half-life at 1 μM in data set [1] amounted to 14 min. Besides, the IC50 in data set [2] was over 10 µM; in data set [4] (setting [5]), 492 nM; in data set [4] (setting [6]) it was 100 to 1000 nM. In addition, the solubility in data set [3] worked out at 2.4 µM (≈ 1.11 µg/mL).

On to `O=C(NC1CCCCCC1)Oc1ccc(O)c(-c2cncc(-c3ncn[nH]3)c2)c1` [Example 231, 3-(5-(1H-1,2,4-triazol-5-yl)pyridin-3-yl)-4-hydroxyphenyl cycloheptylcarbamate], for which the half-life at 1 μM in data set [1] turned out to be 634 min. Further, in data set [1], the “plasma stability and/or aqueous solubility compared to reference compound URB597” value was “improved plasma stability, improved aqueous solubility, or improved plasma stability and aqueous solubility”. Moreover, the figures for the IC50 in data set [2], in data set [4] (setting [5]) and in data set [4] (setting [6]) were over 10 µM, 137 nM and 137 nM, respectively. The same compound showed a solubility in data set [3] of 78.8 µM (≈ 31 µg/mL).

Consider `O=C(NC1CCCCCC1)Oc1ccc(F)c(-c2cncc(-c3ncco3)c2)c1` [Example 87, 4-fluoro-3-(5-(oxazol-2-yl)pyridin-3-yl)phenyl cycloheptylcarbamate], for which the half-life at 1 μM in data set [1] is 7 min. Further, the IC50 was over 10 µM in data set [2], 23.9 nM in data set [4] (setting [5]) and 23.9 nM in data set [4] (setting [6]). The compound further yielded a solubility in data set [3] of 8.6 µM (≈ 3.4 µg/mL).

Take `O=C(NC1CCCCC1)Oc1cccc(-c2cncc(-c3ccco3)c2)c1` [Example 51, 3-(5-(furan-2-yl)pyridin-3-yl)phenyl cyclohexylcarbamate]: the half-life at 1 μM in data set [1] was 8 min. Besides, the IC50 is over 10 µM in data set [2], 76.1 nM in data set [4] (setting [5]) and 76.1 nM in data set [4] (setting [6]). Moreover, the solubility in data set [3] came out at 1.4 µM (≈ 0.507 µg/mL).

For orientation: IC50 means the concentration that inhibits the measured activity by half. By solubility is commonly meant the dissolved amount per volume that the medium holds. Read a high solubility as much dissolved substance.
